# According to the RepoRT retention time repository:
# Assay: RP, Waters CORTECS UPLC C18, 100 × 2.1 mm, 1.6 µm, 40 °C, 0.4 mL/min, estimated dead time 0.55 min; A: water + 0.1% formic acid, pH 3; B: acetonitrile + 0.1% formic acid, pH 3; gradient (min/%B) 0/5 1.12/5 6.41/99.5 10.01/99.5
# Details: stereoisomer not certain
row,SMILES,LC retention time
1,COc1nc(NC(C)C)nc(NC(C)C)n1 [Prometon],3.54 min
2,C=CCOC(Cn1ccnc1)c1ccc(Cl)cc1Cl (configuration not stated) [Imazalil],3.88 min
3,Clc1ccc(C2(Cn3cncn3)OCCO2)c(Cl)c1 [Azaconazole],4.32 min
4,CCCCCCCCCCCCCC[n+]1cccc(S(=O)(=O)[O-])c1 [C14-APS],5.49 min
5,N#CN=C1SCCN1Cc1ccc(Cl)nc1 [Thiacloprid],3.6 min
6,O=C(NC(=O)c1c(F)cccc1F)Nc1cc(Cl)c(F)c(Cl)c1F [Teflubenzuron],5.7 min
7,CC(C)=CCCC(C)C1CCC2C3CC=C4CC(O)CCC4(C)C3CCC12C (configuration not stated) [Desmosterol],6.81 min
8,CNC(=O)C(=NOC)c1ccccc1COc1cc(C)ccc1C [Dimoxystrobin],5.25 min
9,CCN(CC)C(=O)c1cccc(C)c1 [Deet],4.37 min
10,CC(=O)N[C@@H](Cc1ccc(O)cc1)C(=O)O [N-Acetyl-L-tyrosine],2.29 min
11,CC(COc1ccc(Oc2ccccc2)cc1)Oc1ccccn1 (configuration not stated) [Pyripoxyfen],6.07 min
12,CCCCCCCCCCCC(=O)OC(CC(=O)[O-])C[N+](C)(C)C [Lauroyl-L-carnitine],4.7 min
13,COc1cc(OC)nc(NC(=O)NS(=O)(=O)N(C)S(C)(=O)=O)n1 [Amidosulfuron],4.16 min
14,CC1=NNC(=O)N(N=Cc2cccnc2)C1 [Pymetrozin],1.02 min
15,CCCCCC=CCC=CCC=CCC=CCCCC(=O)OC(CC(=O)[O-])C[N+](C)(C)C [Arachidonyl-L-carnitine],5.35 min
16,Cc1cc2nc3c(=O)[nH]c(=O)nc-3n(CC(O)C(O)C(O)CO)c2cc1C (configuration not stated) [RIBOFLAVIN],2.67 min
17,O=C(O)C(=O)Cc1ccccc1 [Phenylpyruvic acid],2.29 min
18,CC1(C(=O)Nc2ccc(O)c(Cl)c2Cl)CCCCC1 [Fenhexamid],5 min
19,Fc1ccc(C2(Cn3cncn3)OC2c2ccccc2Cl)cc1 (configuration not stated) [Epoxiconazol],4.94 min
20,CCCCCCCC[n+]1cccc(S(=O)(=O)[O-])c1 [C8-APS],3.67 min
21,CC(=O)OCC(=O)C1(O)CCC2C3CCC4=CC(=O)CCC4(C)C3C(O)CC21C (configuration not stated) [CORTISOL 21-ACETATE],4.25 min
22,CCCSP(=O)(OCC)Oc1ccc(Br)cc1Cl (configuration not stated) [Profenofos],5.85 min

row,SMILES,LC retention time
1,O=C(NC(=O)c1c(F)cccc1F)Nc1ccc(Cl)cc1 [Diflubenzuron],5.11 min
2,CC(C)=CCCC(C)=CCCC(C)=CCCC=C(C)CCC=C(C)CCC=C(C)C [SQUALENE],6.18 min
3,COCCN(C(=O)CCl)c1c(C)cccc1C [Dimethachlor],4.55 min
4,CCCCCCCCCCCCCCCCCCCC[n+]1cccc(S(=O)(=O)[O-])c1 [C20-APS],7 min
5,O=C(Nc1ccc(F)cc1)c1cccc(Oc2cccc(C(F)(F)F)c2)n1 [Picolinafen],5.93 min
6,CCc1nn(C)c(C(=O)NCc2ccc(C(C)(C)C)cc2)c1Cl [Tebufanpyrad],5.93 min
7,"CCCCCC=CCC=CCCCCCCCC(=O)OC(CC(=O)[O-])C[N+](C)(C)C [cis,cis-9,12-Octadecadienoyl-L-carnitine]",5.38 min
8,OC1COC(O)C(O)C1O (configuration not stated) [ARABINOSE],0.798 min
9,O=C(O)CCCCC1SCC2NC(=O)NC21 (configuration not stated) [BIOTIN],2.7 min
10,CCCCCCCCCCCCC[n+]1cccc(S(=O)(=O)[O-])c1 [C13-APS],5.19 min
11,CCCOC(=O)NCCCN(C)C [Propamocarb],1.97 min
12,Cc1nn(-c2cc(NS(C)(=O)=O)c(Cl)cc2Cl)c(=O)n1C(F)F [Sulfentrazone],4.21 min
13,CNC(=O)ON=C(C)SC [Methomyl],4.02 min
14,OCC1OC(O)C(O)C1O (configuration not stated) [RIBOSE],0.798 min
15,Cc1cc2nc3c(=O)[nH]c(=O)nc-3n(CC(O)C(O)C(O)COP(=O)(O)OP(=O)(O)OCC3OC(n4cnc5c(N)ncnc54)C(O)C3O)c2cc1C (configuration not stated) [FAD],2.34 min
16,CCOP(=S)(OCC)Oc1nc(Cl)c(Cl)cc1Cl [Dursban],6.17 min
17,CNCCc1c[nH]c2ccccc12 [N-METHYLTRYPTAMINE],2.54 min
18,COP(=S)(OC)Oc1nc(Cl)c(Cl)cc1Cl [Chlorpyriphos-methyl],5.73 min
19,COC=C(C(=O)OC)c1ccccc1Oc1cc(Oc2ccccc2C#N)ncn1 [Azoxystrobin],4.91 min
20,CCN(CC)c1nc(C)cc(OP(=S)(OC)OC)n1 [Pirimiphos-methyl],5.67 min
21,CNC(=O)Oc1cccc2c1OC(C)(C)C2 [Carbofuran],4.09 min
22,O=C(Nc1ccccc1)Nc1cnns1 [Thidiazuron],3.74 min

row,SMILES,LC retention time
1,CCCCCCCCCCCCCCCCCCC[n+]1cccc(S(=O)(=O)[O-])c1 [C19-APS],6.81 min
2,CCC1CCCC(OC2CCC(N(C)C)C(C)O2)C(C)C(=O)C2=CC3C(C=CC4CC(OC5OC(C)C(OC)C(OC)C5OC)CC43)C2CC(=O)O1 (configuration not stated) [Spinosad A & D],4.76 min
3,CC1=C(C(=O)Nc2ccccc2)CCCO1 [Pyracarbolid],4.15 min
4,CN(C)C(=O)Nc1ccccc1 [Fenuron],3.14 min
5,CCS(=O)(=O)c1nnc(N(C)C(=O)NC)s1 [Sulfadiazole],3.13 min
6,COC(=O)C(C)N(C(=O)Cc1ccccc1)c1c(C)cccc1C (configuration not stated) [Benalaxyl],5.46 min
7,CC1(C)CN=C(NN=C(C=Cc2ccc(C(F)(F)F)cc2)C=Cc2ccc(C(F)(F)F)cc2)NC1 [Hydramethylnon (Amdro)],5.14 min
8,CC(CCC(=O)NCCS(=O)(=O)O)C1CCC2C3CCC4CC(O)CCC4(C)C3CC(O)C12C (configuration not stated) [Taurodeoxycholic acid],4.16 min
9,CC(C)(C)C(O)C(Oc1ccc(Cl)cc1)n1cncn1 (configuration not stated) [Triadimenol],4.74 min
10,CNC(=O)Oc1ccc(N(C)C)c(C)c1 [Aminocarb],1.6 min
11,CN(C)C(=O)Nc1ccc(Oc2ccc(Cl)cc2)cc1 [Chloroxuron],4.84 min
12,Nc1c(O)cccc1C(=O)O [3-HYDROXYANTHRANILATE],0.722 min
13,CCCN(CCOc1c(Cl)cc(Cl)cc1Cl)C(=O)n1ccnc1 [Prochloraz],4.73 min
14,COP(=O)(OC)OC=C(Cl)Cl [Dichlorvos],3.89 min
15,CON=C1CC2(CC3CC(CC=C(C)CC(C)C=CC=C4COC5C(O)C(C)=CC(C(=O)O3)C45O)O2)OC(C(C)=CC(C)C)C1C (configuration not stated) [Moxidectin],6.81 min
16,Cc1cn(C2CC(O)C(CO)O2)c(=O)[nH]c1=O (configuration not stated) [THYMIDINE],1.1 min
17,Cc1nc(N(C)C)nc(OC(=O)N(C)C)c1C [Pirimicarb],3.06 min
18,COP(N)(=S)Oc1ccccc1C(=O)OC(C)C (configuration not stated) [Isocarbophos],2.32 min
19,CC12CCC(=O)C=C1CCC1C2C(=O)CC2(C)C1CCC2(O)C(=O)CO (configuration not stated) [CORTISONE],3.69 min
20,OC(Cn1cncn1)(c1ccc(F)cc1)c1ccccc1F (configuration not stated) [Flutriafol],4.2 min
21,CON=C(C(=O)OC)c1ccccc1COc1ccccc1C [Kresoxim-methyl],5.42 min
22,CC12CCC(=O)C=C1CCC1C2CCC2(C)C1CCC2(O)C(=O)CO (configuration not stated) [CORTEXOLONE],4.05 min

row,SMILES,LC retention time
1,Cc1cc(C2CC2)nc(Nc2ccccc2)n1 [Cyprodinil],4.68 min
2,CCOC(=O)N(C)C(=O)CSP(=S)(OCC)OCC [Mecarbam],5.34 min
3,O=C(Nc1ccccc1-c1ccc(Cl)cc1)c1cccnc1Cl [Boscalid],4.99 min
4,O=C(O)CCCCC(=O)O [ADIPATE],2.47 min
5,O=c1c2cc(F)ccc2nc(-n2cncn2)n1-c1ccc(Cl)cc1Cl [Fluquinconazole],5.01 min
6,CC1(C)CCC(=Cc2ccc(Cl)cc2)C1(O)Cn1cncn1 (configuration not stated) [Triticonazole],4.76 min
7,O=C(O)C(O)Cc1c[nH]c2ccccc12 (racemic) [DL-Indole-3-lactic acid],3.13 min
8,CCC(C)(NC(=O)c1cc(Cl)c(C)c(Cl)c1)C(=O)CCl (configuration not stated) [Zoxamide],5.55 min
9,CCCCCCCCCC[n+]1cccc(S(=O)(=O)[O-])c1 [C10-APS],4.29 min
10,Cc1cccc(C)c1N(Cn1cccn1)C(=O)CCl [Metazachlor],4.52 min
11,c1coc(-c2nc3ccccc3[nH]2)c1 [Fuberidazole],2.63 min
12,CC1C(c2ccc(Cl)cc2)SC(=O)N1C(=O)NC1CCCCC1 (configuration not stated) [Hexythiazox],6.21 min
13,CCCCC(O)(Cn1cncn1)c1ccc(Cl)cc1Cl (configuration not stated) [Hexaconazole],5.17 min
14,CC(C)(C)C(O)C(=Cc1ccc(Cl)cc1Cl)n1cncn1 (configuration not stated) [Diniconazole],5.27 min
15,CCCCCCCCCCCCCCCCC[n+]1cccc(S(=O)(=O)[O-])c1 [C17-APS],6.34 min
16,C=CCCCCCCCC(=O)O [9-Decenoic acid],4.62 min
17,CN(C)C(=O)NC1CCCCCCC1 [Cycluron],4.22 min
18,CCCCCCCCCCCC=CC(=O)OC(CC(=O)[O-])C[N+](C)(C)C [trans-2-Tetradecenoyl-L-carnitine],4.96 min
19,CC(CCC(=O)O)C1CCC2C3C(O)CC4CC(O)CCC4(C)C3CC(O)C12C (configuration not stated) [Ursocholic acid (7-epicholic acid)],4.34 min
20,C[S+](CCC(N)C(=O)[O-])CC1OC(n2cnc3c(N)ncnc32)C(O)C1O (configuration not stated) [S-ADENOSYLMETHIONINE],5.56 min
21,"C[C@H](CCC(=O)O)[C@H]1CC[C@H]2[C@@H]3[C@H](O)C[C@@H]4C[C@H](O)CC[C@]4(C)[C@H]3CC(=O)[C@]12C [(3ALPHA,5BETA,7ALPHA)-3,7-DIHYDROXY-12-OXOCHOLAN-24-OIC ACID]",4.24 min
